Laboratory results taken from patent publication US11173124B2, “Oral delivery of GLP-1 peptide analogs” (MEDIMMUNE LIMITED, priority 2017, dated 2021).
Starred links: 1 amine or outer side, 2 acyl side, 3 side chain; linkers in the order of their positions; H or OH if unused. Non-standard residues stand in square brackets, D forms with d. Residues, ends and D or L forms follow the SMILES beside them. Groups on a side chain read outwards from the residue. *: point of attachment. γGlu = O=C(O)[C@H](CCC(=O)[*:2])N[*:1]; αMeF = C[C@](N)(Cc1ccccc1)C(=O)O; αMeK = C[C@](N)(CCCCN)C(=O)O; Lauroyl = CCCCCCCCCCCC(=O)*; αMeS = C[C@](N)(CO)C(=O)O; AEEA = NCCOCCOCC(=O)O; Aib = CC(C)(N)C(=O)O

Assays:
[1] = Canine site of absorption study, IntelliCap, SEQ ID NO:3 solution formulations (Example 10); assay type: in vivo, Beagle dogs; settings: for bioavailability: Beagle, plasma; for bioavailability / AUC(0-t) / Cmax / Tmax: dog, pH 8, canine; for F: canine; for AUC(0-t) / Cmax / Tmax: in vivo
Source text: The IntelliCap® system, an electronic oral drug delivery and monitoring device, was used to determine regional absorption for solution formulations. In the form of a capsule, the IntelliCap® incorporates a microprocessor, battery, pH sensor, temperature sensor, radio frequency (RF) wireless transceiver, fluid pump, and drug reservoir. The IntelliCap® system can determine the drug's position in the gastrointestinal (GI) tract by a pH monitoring sensor in the capsule, thereby eliminating the need for in vivo imaging. This system was employed to assess the site of absorption of GLP-1 peptide analogs in the GI tract following oral delivery to canines (Beagle dogs). Solution formulations without permeation enhancer excipients were used as intravenous (IV) and subcutaneous (SC) controls in the study. In brief, solution formulations were prepared and transferred to the IntelliCap® capsule which was dosed to canines, wherein the formulation was released at a specific site in the GI tract.

[2] = Canine study, MEDI7219 multi-unit particulate (MUPS) formulations (Example 16); assay type: in vivo; settings: Oral capsule, MUPS 9 mg peptide, 88 mg Na CDC, 190 mg PG
Method: Ten different Multi-unit particulate (MUPS) formulations were prepared (Table 23) using the MEDI7219 (SEQ ID NO:2) peptide and permeation enhancers. The manufacturing process for the MUPS formulation was as follows. A solution of MEDI7219 (SEQ ID NO:2) peptide, sodium chenodeoxycholate and propyl gallate was prepared in water and sprayed onto sugar spheres in a Glatt Mini fluid bed coater. Following drying, sugar spheres coated with peptide and permeation enhancers were coated to result in the compositions described in Table 23.

[3] = in vivo; settings: beagle, dog, po
Source text: The following materials and methods were used for quantitative measurements of GLP-1 peptide analogs in plasma (e.g., rat or dog plasma) in the Examples below. These methods used a SCIEX 6600 TripleTOF mass spectrometer coupled with a Shimadzu ultra-high performance liquid chromatography (UHPLC). The specificity of the method was ensured by the retention time, the selected mass for Single-Reaction-Monitoring (SRM) mode, and the selected fragment mass in MS/MS (MS^2) mode. […] The analytes of interest were analyzed from plasma, a complex biological matrix. Although protein precipitation using organic solvent can reduce matrix interference, significant background still persists. The high mass accuracy offered by the TripleTOF mass spectrometers further eliminated background noise, thus enhancing signal: noise (S/N) and allowing improved quantification.
The plasma extraction procedure used the following steps: • Samples, standards, and quality controls were incubated until they reached room temperature. They were then incubated at 60° C. for 2 minutes and cooled down to room temperature, vortexed, and spun down. • 70 μL of samples, standards, or quality controls were transferred into a 1 mL 96-well plate. • In each well, 420 uL of Precipitation Solution was added. The plate was sealed and shook for 10 minutes on a plate shaker at 600 rpm. • The plate was centrifuged at 18G, 2500 RFC, 20° C. for 10 minutes. • The plate was carefully removed, and the upper clear supernatant was extracted with a 200 uL multichannel pipette into a new 96-well protein lobind plate. The supernatant was extracted twice for each well, and the supernatants were combined. • The Plate was placed in TurboVap and the extracted supernatant was dried completely with heated (65° C.) Nitrogen gas at 60 Fahrenheit (Fh). • After the plate was completely dry, the plates were covered and incubated at room temperature for at least 30 minutes until the plate returned back to ambient temperature. • 150 μL of Reconstitution solution was added to each well. The plate was covered with a pierceable place seal and shaken at 600 rpm for 10 minutes. • The samples were submitted to the LC-MS/MS on the same day of Preparation
Quantification of the data obtained using the high resolution SCIEX 6600 instrument was then performed as follows: • For the quantification, extracted ion chromatograms (XIC) using 0.2 Da m/z extraction window centered on the accurate mass of each fragment ion were generated. Accurate mass was calculated from the structure of the compound. […] Concentrations of the target analyte in unknown samples were obtained by regression analysis using linear fits of peak areas vs. analyte concentration, weighted 1/(concentration). • The quality of the assay was controlled by the quality control samples. • Either Experiment 1 or Experiment 2 could be used for the quantification of the GLP-1 peptide analogs in high resolution mode.
MEDI7219 (SEQ ID NO:2) formulations were studied in the following canine study, which was designed to compare different tablet delivery systems and peptides in enterically coated tablet formulation compositions delivered orally. […]
The efficacy of sodium caprate as a permeation enhancer was also evaluated.

[4] = po, 0.74 mg/kg, PO IntelliCap capsule-proximal small bowel, 8 mg/mL peptide, 10 mg/mL Na CDC, 2 mg/mL Sodium Caprate, PBS pH 8.0
[5] = po, 0.74 mg/kg, PO IntelliCap proximal colon, 8 mg/mL peptide, 10 mg/mL Na CDC, 2 mg/mL Sodium Caprate, PBS pH 8.0
[6] = po, 0.74 mg/kg, PO gavage, 8 mg/mL peptide, 10 mg/mL Na CDC, 2 mg/mL Sodium Caprate, PBS pH 8.0
[7] = iv, 0.01 mg/kg, 0.1 mg/mL peptide in PBS pH 8.0
[8] = sc, 0.01 mg/kg, 0.1 mg/mL peptide in PBS pH 8.0

## CC[C@H](C)[C@H](NC(=O)C(C)(Cc1ccccc1)NC(=O)[C@H](CCC(=O)O)NC(=O)[C@H](CCCCNC(=O)COCCOCCNC(=O)COCCOCCNC(=O)CC[C@H](NC(=O)CCCCCCCCCCCCCCCCC(=O)O)C(=O)O)NC(=O)[C@H](C)NC(=O)[C@H](C)NC(=O)[C@H](CCC(=O)O)NC(=O)CNC(=O)[C@H](CCC(=O)O)NC(=O)[C@H](CC(C)C)NC(=O)C(C)(Cc1ccccc1)NC(=O)[C@H](CO)NC(=O)C(C)(CO)NC(=O)[C@@H](NC(=O)[C@H](CC(=O)O)NC(=O)[C@H](CO)NC(=O)[C@@H](NC(=O)C(C)(Cc1ccccc1)NC(=O)[C@H](CO)NC(=O)CNC(=O)[C@H](CCC(=O)O)NC(=O)C(C)(C)NC(=O)[C@@H](N)Cc1c[nH]cn1)[C@@H](C)O)C(C)C)C(=O)N[C@@H](C)C(=O)NC(C)(Cc1ccccc1)C(=O)N[C@H](C(=O)N[C@H](C(=O)NC(C)(CCCCN)C(=O)NCC(=O)NCC(N)=O)C(C)C)C(C)C (stereo partly drawn) [SEQ ID NO: 3, Free-H-[AIB]-EGS-[αMePhe]-TSDV-[αMeSer]-S-[αMePhe]-LEGEAAK[(PEG2)2-γE-Stearate]-E-[αMePhe]-IA-[αMePhe]-VV-[αMeLys]-GG-amide]
[1]; [4]
  bioavailability: 1.14%
  AUC(0-t): 1390 ng·h/mL
  Cmax: 60.7 ng/mL
  Tmax: 0.5 h
[1]; [5]
  bioavailability: 3.95%
  AUC(0-t): 4840 ng·h/mL
  Cmax: 386 ng/mL
[1]; [6]
  bioavailability: 0.19%
  AUC(0-t): 228 ng·h/mL
  Cmax: 7.1 ng/mL
  Tmax: 4 h
[1]; IV, 0.01 mg/kg, 0.1 mg/mL peptide in PBS pH 8.0
  F: 100%
[1]; SC, 0.01 mg/kg, 0.1 mg/mL peptide in PBS pH 8.0
  F: 105.84%
[1]; [7]
  AUC(0-t): 1650 ng·h/mL
  Cmax: 140 ng/mL
  Tmax: 0.5 h
[1]; [8]
  AUC(0-t): 1750 ng·h/mL
  Cmax: 45.1 ng/mL

## CCCCCCCCCCCC(=O)N[C@@H](CCC(=O)NCCOCCOCC(=O)NCCOCCOCC(=O)NCCCC[C@H](NC(=O)[C@H](C)NC(=O)[C@@H](NC(=O)[C@](C)(Cc1ccccc1)NC(=O)[C@H](CCC(=O)O)NC(=O)[C@](C)(CCCCN)NC(=O)[C@H](C)NC(=O)[C@H](C)NC(=O)[C@H](CCC(=O)O)NC(=O)CNC(=O)[C@H](CCC(=O)O)NC(=O)[C@H](CC(C)C)NC(=O)[C@H](CCCCNC(=O)COCCOCCNC(=O)COCCOCCNC(=O)CC[C@H](NC(=O)CCCCCCCCCCC)C(=O)O)NC(=O)[C@H](CO)NC(=O)[C@](C)(CO)NC(=O)[C@@H](NC(=O)[C@H](CC(=O)O)NC(=O)[C@H](CO)NC(=O)[C@@H](NC(=O)[C@](C)(Cc1ccccc1)NC(=O)[C@H](CO)NC(=O)CNC(=O)[C@H](CCC(=O)O)NC(=O)C(C)(C)NC(=O)[C@@H](N)Cc1c[nH]cn1)[C@@H](C)O)C(C)C)[C@@H](C)CC)C(=O)N[C@H](C(=O)N[C@H](C(=O)N[C@@H](CCC(=O)O)C(=O)NCC(=O)NCC(N)=O)C(C)C)C(C)C)C(=O)O [MEDI7219, Free-H-[AIB]-EGS-[αMePhe]-TSDV-[αMeSer]-SK[(PEG2)2-γE-Lauroyl]-LEGEAA-[αMeLys]-E-[αMePhe]-IAK[(PEG2)2-γE-Lauroyl]-VVEGG-amide] (H-H[Aib]EGS[αMeF]TSDV[αMeS]SK([AEEA-AEEA-γGlu-Lauroyl])LEGEAA[αMeK]E[αMeF]IAK([AEEA-AEEA-γGlu-Lauroyl])VVEGG-NH2)
[2]; 10% Carbopol 71G Mucoadhesive polymer + 25% pH 5.5 EC
  F: 0.393%
[2]; 10% Carbopol 71G Mucoadhesive polymer + 25% pH 7.0 EC
  F: 0.582%
[2]; 10% Polycarbophill AA Mucoadhesive polymer + 25% pH 5.5 EC
  F: 0.124%
[2]; 10% Polycarbophill AA Mucoadhesive polymer + 25% pH 7.0 EC
  F: 0.572%
[2]; + 10% Eudragit(RL + RS) + 25% pH 5.5 EC
  F: 0.537%
[2]; pH 5.5 EC
  F: 1.30%
[2]; pH 7.0 EC
  F: 2.54%
[3]
  AUC: 13500 ng·h/mL
  half-life: 10 h
